Converted amounts (≈) assume the structure as drawn. Like-named read-outs stand apart in the source and are kept apart here.
Legend:
Type in all cases: cell-based
A549 (human lung cancer) = assay: MTT assay, growth inhibition of A549 cells; conditions: for IC50: Homo sapiens
Procedure: (§1) The cell lines A549 (human lung cancer), HT-29 (human colon carcinoma), and COLO 205 (human colon carcinoma) were obtained from the American Type Culture Collection (ATCC) (Rockville, Md.). These cell lines were maintained in DMEM containing 10% heat-inactivated fetal bovine serum, 100 units/mL of penicillin and 100 μg/mL of streptomycin, and were kept at 37° C. in a 5% CO2 incubator.
(§2) MTT assay was performed as described by Hansen et al. (Hansen et al., J. Immunol. Methods 119, 203-210, 1989). A549 (1.5×10^3 cells/well), HT-29 (2×10^3 cells/well), and COLO 205 (3×10^3 cells/well) were seeded in 96-well plates and grown overnight. Cells were then incubated in 10% FBS medium containing different amounts of adlay bran subfractions for 48 hours. At the end of incubation, media were replaced with 100 μL of reagent (MTT, 1 mg/mL) and incubated in a 5% CO2 incubator at 37° C. for another 2 h. The medium was then discarded and 100 μL of DMSO was added to each well. The absorbance was measured at 570 nm by scanning with a micro-plate reader (Molecular Devices, Calif.). Each sample was analyzed six times, and the values were averaged. For the determination of IC50 (the concentration of each substance required to inhibit cell proliferation by 50%), each sample was measured at five different concentrations by the MTT test. […] The IC50 values of each sample were collected from three replicates, and then mean±standard deviation values were obtained for the results of the IC50 assay.

[1] = test system: HT-29 (human colon carcinoma); assay: MTT assay, growth inhibition of HT-29 cells; conditions: 48 hours incubation, mean ± SD of three replicates; for IC50: Homo sapiens, HT-29, 48 h, read-out: IC50 (concentration required for 50% growth inhibition of cancer cells), HT-29
Procedure: as §1, §2

[2] = test system: COLO 205 (human colon carcinoma); assay: MTT assay, growth inhibition of COLO 205 cells; conditions: 48 hours incubation, mean ± SD of three replicates; for IC50: Homo sapiens, COLO 205, 48 h, read-out: IC50 (concentration required for 50% growth inhibition of cancer cells), COLO 205
Procedure: as §1, §2

[3] = A549, 48 h, A549 cells, 48 hours incubation, MTT, mean ± SD of three replicates, read-out: IC50 (concentration required for 50% growth inhibition of cancer cells), A549
[4] = A549, summary range over all five compounds and all three cell lines A549, HT-29, COLO 205, read-out: IC50 values against A549, HT-29 and COLO 205 cells (overall range)

| SMILES | IC50 (A549 (human lung cancer); [3]) [µg/mL] | IC50 (A549 (human lung cancer); [4]) [µg/mL] | IC50 [1] [µg/mL] | IC50 [2] [µg/mL] | IC50 (concentration required for 50% growth inhibition of cancer cells), A549 (A549 (human lung cancer); A549 cells, 48 hours incubation, MTT, mean ± SD of three replicates) [µg/mL] | IC50 (concentration required for 50% growth inhibition of cancer cells), HT-29 [1] [µg/mL] | IC50 (concentration required for 50% growth inhibition of cancer cells), COLO 205 [2] [µg/mL] |
| --- | --- | --- | --- | --- | --- | --- | --- |
| O=C1C[C@]2(CO1)C(=O)Nc1ccccc12 [Compound 1, coixspirolactam A] | 37.1 ± 1.93 (≈ 183 µM) | 28.6 to 72.6 (≈ 141 to 357 µM) | 34.4 ± 3.53 (≈ 169 µM) | 35.9 ± 4.65 (≈ 177 µM) |  |  |  |
| COC(=O)[C@H]1Cc2ccccc2NC1=O [Compound 4, coixlactam] | 65 ± 3.32 (≈ 317 µM) | 28.6 to 72.6 (≈ 139 to 354 µM) | 52.6 ± 2.64 (≈ 256 µM) | 72.6 ± 5.31 (≈ 354 µM) |  |  |  |
| COC(=O)CC1(O)C(=O)Nc2ccccc21 (stereo not shown) [Compound 5, methyl dioxindole-3-acetate] | 42.6 ± 2.31 (≈ 193 µM) | 28.6 to 72.6 (≈ 129 to 328 µM) | 48.9 ± 3.83 (≈ 221 µM) | 45.5 ± 6.42 (≈ 206 µM) |  |  |  |

Results, then the molecule that gave them:

| IC50 (A549 (human lung cancer); [3]) [µg/mL] | IC50 (A549 (human lung cancer); [4]) [µg/mL] | IC50 [1] [µg/mL] | IC50 [2] [µg/mL] | IC50 (concentration required for 50% growth inhibition of cancer cells), A549 (A549 (human lung cancer); A549 cells, 48 hours incubation, MTT, mean ± SD of three replicates) [µg/mL] | IC50 (concentration required for 50% growth inhibition of cancer cells), HT-29 [1] [µg/mL] | IC50 (concentration required for 50% growth inhibition of cancer cells), COLO 205 [2] [µg/mL] | SMILES |
| --- | --- | --- | --- | --- | --- | --- | --- |
| 28.6 ± 2.04 (≈ 132 µM) | 28.6 to 72.6 (≈ 132 to 334 µM) | 32.7 ± 2.29 (≈ 151 µM) | 41.3 ± 3.52 (≈ 190 µM) |  |  |  | CC1OC(=O)C[C@@]12C(=O)Nc1ccccc12 (stereo partly shown) [Compound 2, coixspirolactam B] |
|  |  |  |  | 31.75 ± 2.58 | 37.55 ± 3.08 | 48.12 ± 4.15 | CC1OC(=O)C[C@@]12C(=O)Nc1ccccc12 (stereo partly shown) [Compound 3, coixspirolactam C] |

Reference: US20100041900A1, “Isolation of lactam compound from adlay bran and its use on anti-proliferative cancer cells” (KUANG TA FOODS CO., LTD, priority 2008, published 2010)
